Assay results: US9844536B2, “3-(1H-imidazo[4,5-C]pyridin-2-yl)-1H-pyrazolo[3,4-C]pyridine and therapeutic uses thereof” (Samumed, LLC, priority 2014, dated 2017)
pEC50, pIC50: −log10 of the molar value.

Legend:
[1] = system: Wnt pathway (Sp5-Luc reporter, SW480 cells); experiment: Sp5-Luc reporter gene screening assay for Wnt activity in SW480 colon carcinoma cells; assay type: cell-based; conditions: Homo sapiens
Excerpt: The screening assay for Wnt activity is described as follows. Reporter cell lines can be generated by stably transducing cancer cell lines (e.g., colon cancer) or primary cells (e.g., IEC-6 intestinal cells) with a lentiviral construct that includes a Wnt-responsive promoter driving expression of the firefly luciferase gene.
SW480 colon carcinoma cells were transduced with a lentiviral vector expressing luciferase with a human Sp5 promoter consisting of a sequence of eight TCF/LEF binding sites. SW480 cells stably expressing the Sp5-Luc reporter gene and a hygromycin resistance gene were selected by treatment with 150 μg/ml of hygromycin for 7 days. These stably transduced SW480 cells were expanded in cell culture and used for all further screening activities. For Sp5-Luc reporter gene assays, the cells were plated at 10,000 cells/well in 96-well plates with growth medium containing 10% fetal calf serum and incubated overnight at 37° C. and 5% CO2. Each compound was dissolved in DMSO as a 10 mM stock in standard j-vials and used to prepare compound source plates in dose-response format with 3-fold serial dilutions and a 10 mM top concentration. Compound transfer from serially diluted source plates to assay plates containing the cells was accomplished using a pintool (Multimek 96, Beckman equipped with V&P Scientific FP1S50H pins) based liquid handling protocol. This protocol used a slotted pin to transfer 50 nl of compound from a source plate well to an assay plate well containing 50 μl of cells in growth medium. […] Control wells received 50 nl of DMSO treatment for normalization and calculating IC50 values. The treated cells were incubated at 37° C. and 5% CO2 for an additional forty-two hours. Following incubation, the growth medium was removed and 50 μl of BrightGlo luminescence reagent (Promega) was added to each well of the 96-well assay plates. The plates were placed on an orbital shaker for 5 min and then luminescence was quantified on the Victor3 (Perkin Elmer) plate reader. Readings were normalized to DMSO only treated cells, and normalized activities were utilized for IC50 calculations using the dose-response log (inhibitor) vs. response-variable slope (four parameters) nonlinear regression feature available in GraphPad Prism 5.0 or 6.0.

LL29 cells = experiment: Inhibition of the fibrotic process (αSMA staining) in TGF-β1 treated primary human fibroblasts from IPF patients; assay type: cell-based; conditions: Fibroblast, 96 h, TGF-β1 20 ng/mL, 4 days, dose-response 10 μM to 1.87 nM, read-out: Inhibition of fibrosis EC50
Excerpt: The above synthesized compounds were screened using primary human fibroblasts (derived from IPF patients) treated with TGF-β1 to determine their ability to inhibit the fibrotic process.
Primary human fibroblasts derived from IPF patients (LL29 cells) [^1Xiaoqiu Liu, et. al., “Fibrotic Lung Fibroblasts Show Blunted Inhibition by cAMP Due to Deficient cAMP Response Element-Binding Protein Phosphorylation”, Journal of Pharmacology and Experimental Therapeutics (2005), 315(2), 678-687; ^2Watts, K. L., et. al., “RhoA signaling modulates cyclin D1 expression in human lung fibroblasts; implications for idiopathic pulmonary fibrosis”, Respiratory Research (2006), 7(1), 88] were obtained from American Type Culture Collection (ATCC) and expanded in F12 medium supplemented with 15% Fetal Bovine Serum and Penicillin/Streptomycin.
Each compound was dissolved in DMSO as a 10 mM stock and used to prepare compound source plates. Serial dilution (1:2, 11-point dose-response curves from 10 μM to 1.87 nM) and compound transfer was performed using the ECHO 550 (Labcyte, Sunnyvale, Calif.) into 384-well clear bottom assay plates (Greiner Bio-One) with appropriate DMSO backfill for a final DMSO concentration of 0.1%. LL29 cells were plated at 1,500 cells/well in 80 μl/well F12 medium supplemented with 1% Fetal Bovine Serum. One hour after addition of the cells, TGF-β1 (Peprotech; 20 ng/mL) was added to the plates to induce fibrosis (ref. 1 and 2 above). Wells treated with TGF-β1 and containing DMSO were used as controls. Cells were incubated at 37° C. and 5% CO2 for 4 days. Following incubation for 4 days, SYTOX green nucleic acid stain (Life Technologies [Thermo Fisher Scientific]) was added to the wells at a final concentration of 1 uM and incubated at room temperature for 30 min. Cells were then fixed using 4% formaldehyde (Electron Microscopy Sciences), washed 3 times with PBS followed by blocking and permeabilization using 3% Bovine Serum Albumin (BSA; Sigma) and 0.3% Triton X-100 (Sigma) in PBS. Cells were then stained with antibody specific to α-smooth muscle actin (αSMA; Abcam) (ref. 1 and 2 above) in 3% Bovine Serum Albumin (BSA; Sigma) and 0.3% Triton X-100 (Sigma) in PBS, and incubated overnight at 4° C. Cells were then washed 3 times with PBS, followed by incubation with Alexa Flor-647 conjugated secondary antibody (Life Technologies [Thermo Fisher Scientific]) and DAPI at room temperature for 1 hour. Cells were then washed 3 times with PBS and plates were sealed for imaging. αSMA staining was imaged by excitation at 630 nm and emission at 665 nm and quantified using the Compartmental Analysis program on the CellInsight CX5 (Thermo Scientific). Dead or apoptotic cells were excluded from analysis based on positive SYTOX green staining. % of total cells positive for αSMA were counted in each well and normalized to the average of 11 wells treated with TGF-31 on the same plate using Dotmatics' Studies Software. The normalized averages (fold change over untreated) of 3 replicate wells for each compound concentration were used to create dose-responses curves and EC50 values were calculated using non-linear regression curve fit in the Dotmatics' Studies Software. The EC50 values are reported.

Row | pIC50 [1] | Structure (SMILES) | pEC50 (LL29 cells)
1 | 7.94 | CN(C)c1cncc(-c2cc3c(-c4nc5c(-c6cccc(F)c6)nccc5[nH]4)n[nH]c3cn2)c1 [Compound 7, 5-(3-(4-(3-Fluorophenyl)-1H-imidazo[4,5-c]pyridin-2-yl)-1H-pyrazolo[3,4-c]pyridin-5-yl)-N,N-dimethylpyridin-3-amine] | ≥ 8.05
2 | 6.80 | CN(C)Cc1cncc(-c2cc3c(-c4nc5c(-c6cccc(F)c6)nccc5[nH]4)n[nH]c3cn2)c1 [Compound 13, 1-(5-(3-(4-(3-Fluorophenyl)-1H-imidazo[4,5-c]pyridin-2-yl)-1H-pyrazolo[3,4-c]pyridin-5-yl)pyridin-3-yl)-N,N-dimethylmethanamine] | 5.78
3 | 7.59 | O=C(Nc1cncc(-c2cc3c(-c4nc5c(-c6cccc(F)c6)nccc5[nH]4)n[nH]c3cn2)c1)C1CC1 [Compound 19, N-(5-(3-(4-(3-Fluorophenyl)-1H-imidazo[4,5-c]pyridin-2-yl)-1H-pyrazolo[3,4-c]pyridin-5-yl)pyridin-3-yl)cyclopropanecarboxamide] | ≥ 8.05
4 | 7.51 | Fc1cccc(-c2nccc3[nH]c(-c4n[nH]c5cnc(-c6cncc(CN7CCC(F)(F)C7)c6)cc45)nc23)c1 [Compound 25, 5-(5-((3,3-Difluoropyrrolidin-1-yl)methyl)pyridin-3-yl)-3-(4-(3-fluorophenyl)-1H-imidazo[4,5-c]pyridin-2-yl)-1H-pyrazolo[3,4-c]pyridine] | 6.73
5 | 6.76 | CC(C)CC(=O)Nc1cncc(-c2cc3c(-c4nc5c(-c6ccc(F)cc6)nccc5[nH]4)n[nH]c3cn2)c1 [Compound 28, N-(5-(3-(4-(4-Fluorophenyl)-1H-imidazo[4,5-c]pyridin-2-yl)-1H-pyrazolo[3,4-c]pyridin-5-yl)pyridin-3-yl)-3-methylbutanamide] | 6.26
6 | 7.29 | CC(C)(C)C(=O)Nc1cncc(-c2cc3c(-c4nc5c(-c6ccc(F)cc6)nccc5[nH]4)n[nH]c3cn2)c1 [Compound 34, N-(5-(3-(4-(4-Fluorophenyl)-1H-imidazo[4,5-c]pyridin-2-yl)-1H-pyrazolo[3,4-c]pyridin-5-yl)pyridin-3-yl)pivalamide] | 6.29
7 | < 5.00 | Fc1ccc(-c2nccc3[nH]c(-c4n[nH]c5cnc(-c6cncc(CN7CCCC7)c6)cc45)nc23)cc1 [Compound 40, 3-(4-(4-Fluorophenyl)-1H-imidazo[4,5-c]pyridin-2-yl)-5-(5-(pyrrolidin-1-ylmethyl)pyridin-3-yl)-1H-pyrazolo[3,4-c]pyridine] | ≤ 5.00
8 | 7.21 | O=C(Nc1cncc(-c2cc3c(-c4nc5c(-c6ccc(F)cc6)nccc5[nH]4)n[nH]c3cn2)c1)C1CCC1 [Compound 46, N-(5-(3-(4-(4-Fluorophenyl)-1H-imidazo[4,5-c]pyridin-2-yl)-1H-pyrazolo[3,4-c]pyridin-5-yl)pyridin-3-yl)cyclobutanecarboxamide] | ≥ 8.05
9 | 7.13 | Fc1ccc(-c2nccc3[nH]c(-c4n[nH]c5cnc(-c6cncnc6)cc45)nc23)cc1 [Compound 52, 3-(4-(4-Fluorophenyl)-1H-imidazo[4,5-c]pyridin-2-yl)-5-(pyrimidin-5-yl)-1H-pyrazolo[3,4-c]pyridine] | 7.36
10 | 6.94 | CC(C)(C)C(=O)Nc1cncc(-c2cc3c(-c4nc5c(-c6ccccc6F)nccc5[nH]4)n[nH]c3cn2)c1 [Compound 60, N-(5-(3-(4-(2-Fluorophenyl)-1H-imidazo[4,5-c]pyridin-2-yl)-1H-pyrazolo[3,4-c]pyridin-5-yl)pyridin-3-yl)pivalamide] | 6.06
11 | 6.72 | CC(C)C(=O)Nc1cncc(-c2cc3c(-c4nc5c(-c6ccccc6F)nccc5[nH]4)n[nH]c3cn2)c1 [Compound 61, N-(5-(3-(4-(2-Fluorophenyl)-1H-imidazo[4,5-c]pyridin-2-yl)-1H-pyrazolo[3,4-c]pyridin-5-yl)pyridin-3-yl)isobutyramide] | 6.82
12 | 6.58 | O=C(Nc1cncc(-c2cc3c(-c4nc5c(-c6ccccc6F)nccc5[nH]4)n[nH]c3cn2)c1)C1CCCC1 [Compound 73, N-(5-(3-(4-(2-Fluorophenyl)-1H-imidazo[4,5-c]pyridin-2-yl)-1H-pyrazolo[3,4-c]pyridin-5-yl)pyridin-3-yl)cyclopentanecarboxamide] | 6.27
13 | < 5.00 | CC(C)C(=O)Nc1cncc(-c2cc3c(-c4nc5c(-c6cccnc6)nccc5[nH]4)n[nH]c3cn2)c1 [Compound 87, N-(5-(3-(4-(Pyridin-3-yl)-1H-imidazo[4,5-c]pyridin-2-yl)-1H-pyrazolo[3,4-c]pyridin-5-yl)pyridin-3-yl)isobutyramide] | ≤ 5.00
14 | 7.95 | CC(C)Nc1cncc(-c2cc3c(-c4nc5c(-c6cccnc6)nccc5[nH]4)n[nH]c3cn2)c1 [Compound 90, N-Isopropyl-5-(3-(4-(pyridin-3-yl)-1H-imidazo[4,5-c]pyridin-2-yl)-1H-pyrazolo[3,4-c]pyridin-5-yl)pyridin-3-amine] | ≥ 8.05
15 | 6.94 | Cc1ccncc1-c1cc2c(-c3nc4c(-c5ccncc5)nccc4[nH]3)n[nH]c2cn1 [Compound 109, 5-(4-Methylpyridin-3-yl)-3-(4-(pyridin-4-yl)-1H-imidazo[4,5-c]pyridin-2-yl)-1H-pyrazolo[3,4-c]pyridine] | ≤ 5.00
16 | < 5.00 | CCCC(=O)Nc1cncc(-c2cc3c(-c4nc5c(-c6ccncc6)nccc5[nH]4)n[nH]c3cn2)c1 [Compound 121, N-(5-(3-(4-(Pyridin-4-yl)-1H-imidazo[4,5-c]pyridin-2-yl)-1H-pyrazolo[3,4-c]pyridin-5-yl)pyridin-3-yl)butyramide] | ≤ 5.00
17 | 6.70 | CC(C)CC(=O)Nc1cncc(-c2cc3c(-c4nc5c(-c6ccccn6)nccc5[nH]4)n[nH]c3cn2)c1 [Compound 132, 3-Methyl-N-(5-(3-(4-(pyridin-2-yl)-1H-imidazo[4,5-c]pyridin-2-yl)-1H-pyrazolo[3,4-c]pyridin-5-yl)pyridin-3-yl)butanamide] | 6.16
18 | 6.08 | CCNCc1cncc(-c2cc3c(-c4nc5c(-c6ccccn6)nccc5[nH]4)n[nH]c3cn2)c1 [Compound 136, N-((5-(3-(4-(Pyridin-2-yl)-1H-imidazo[4,5-c]pyridin-2-yl)-1H-pyrazolo[3,4-c]pyridin-5-yl)pyridin-3-yl)methyl)ethanamine] | ≥ 8.05
19 | 7.15 | O=C(Nc1cncc(-c2cc3c(-c4nc5c(-c6ccccn6)nccc5[nH]4)n[nH]c3cn2)c1)C1CCC1 [Compound 150, N-(5-(3-(4-(Pyridin-2-yl)-1H-imidazo[4,5-c]pyridin-2-yl)-1H-pyrazolo[3,4-c]pyridin-5-yl)pyridin-3-yl)cyclobutanecarboxamide] | 5.98
